Data reported in patent US20240058332A1, “CRAC CHANNEL INHIBITOR COMPOSITIONS” (CalciMedica, Inc., priority 2017, published 2024).
Converted amounts (≈) assume the structure as drawn.

Key:
Type in all cases: physicochemical
[1] = Initial formulations: Compound A saturation assay (HPLC) and appearance in template emulsion vehicles; settings: emulsion composition containing ≥10% egg lecithin, aqueous with cosolvent or surfactant or cyclodextrin, thermodynamic from solid
Description: Ten compositions were prepared using various template compositions, containing lecithin, soybean oil (SBO) or medium chain triglycerides (MCT), glycerin or sucrose (non-ionic tonicity agent), edetate disodium di-hydrate (EDTA, chelating agent) in deionized water. Compound A (Form A) was added and agitated to reach solubility equilibrium at ambient room temperature. Each formulation was prepared in the following steps: Compound A (5 mg) was dispersed in each template vehicle. The formulation were then homogenized and at room temperature for >24 h and then passed sample through 0.45 μm filter for analysis (HPLC).

[2] = Stability of Formulation F-9 (small scale), 2 weeks at 2-8° C. and 25° C.; settings: F-9 emulsion, after 2 weeks at 2-8° C. and 25° C.
Description: Procedures: Compound A (Form A) was added to F-9 vehicle containing MCT/Egg/lecithin/Sucrose/EDTA in a plastic tube. The formulation was mixed until uniform and complete drug dissolution. The emulsion was sterilized through 0.2 μm membrane filter. The samples were placed at 2-8° C. and 25° C. for stability evaluation for 2 weeks. The samples were tested for appearance, pH, Compound A assay and purity by HPLC, mean droplet size and globule size distribution in lipid injectable emulsions (USP<729>) and the results are shown in Table 17.

[3] = Emulsion stability 1 week at 40° C. (appearance, assay, Z-Ave, PFAT5); settings: emulsions at 2-8° C. and after 8 days at 40° C.
Description: Procedure: • Prepared all vehicles by mixing lipid and aqueous phase ingredients and homogenized. • Added Compound A (Form A) at 0.3% concentration in each vehicle. • Homogenized and mixed overnight until uniform or achieved equilibrium. • Filtered emulsion through 0.45 μm Nylon membrane filter. • Evaluated appearance, drug concentration by HPLC assay, average droplet size and PFAT5. • Selected the top 5-10 formulations achieving acceptance criteria initially. • Placed at 40° C. for up to 2 weeks to monitor emulsion stability. • Selected the top 3-5 formulations meeting the proposed requirements after 1-2 weeks at 40° C.
Methods: • Appearance: Record visual observation • Z-ave (nm): Measure mean oil droplet size by ZetaSizer (Malvern Instrument). Dilute 50 μL sample with 950 μL DI water at room temperature • Assay (%): Use the current HPLC method • Spin-X: Pass 0.5 mL emulsion through CoStar® Spin-X 0.2 μm Nylon filter (0.7 cm^2 surface area) at 3,144 G-force centrifuge for 60 sec at ambient room temperature. Evaluate completeness of emulsion passing through the filter.

[4] = Solubility of Compound A in F57, Method 6: Form B seeds added to GMP batch; settings: F57 emulsion (GMP batch), 2 °C, thermodynamic from solid; 2-8° C.; read-out: API solubility in F57
Description: (§1) To investigate the causes of precipitation and determine the Compound A solubility in F57 vehicle, the following seven (7) methods were applied to accurately determine solubility of Compound A in F57: • Method 1: Formulate Compound A in F57 at varied concentrations using GMP grade of Compound A and excipients with the regular process • Method 2: Formulate Compound A in F57 by introducing Compound A into a pre-formed F57 vehicle • Method 3: Observe Compound A in the previously made batches which already had extended incubation • Method 4: Conduct “top-down” and a “bottom-up” solubility studies in F57 vehicle • Method 5: Agitate Compound A GMP batch of F57 to promote the dissolution-precipitation equilibrium • Method 6: Add extra Form B seeds to Compound A GMP batch of F57 to promote Compound A crystal growth and precipitation • Method 7: Add Form B seeds to the samples made in method 1 to promote Compound A crystal growth and precipitation
For solubility determination, a F57 sample (usually about 0.5 mL) was filtered through a 0.22 μm centrifuge filter (Costar Spin-X®+, P/N8169), the filtrate (free of any solid particle) was collected, diluted with isopropanol, and tested for Compound A concentration using the following HPLC method. […]

[5] = Solubility of Compound A in F57, summary of all 7 methods
Description: The term “solubility” used herein is defined as Compound A concentration where Compound A has reached a dissolution-precipitation equilibrium in F57 at a selected temperature. […] On the other hand, if Compound A concentration is higher than the solubility, Compound A is expected to precipitate over time.
as §1
(§2) For solubility determination, a F57 sample (usually about 0.5 mL) was filtered through a 0.22 μm centrifuge filter (Costar Spin-X®+, P/N8169), the filtrate (free of any solid particle) was collected, diluted with isopropanol, and tested for Compound A concentration using the following HPLC method. Dissolution-precipitation equilibrium is reached once the measured filtrate concentration is constant, and that concentration can be regarded as the solubility.
Table 40 summarizes the general conditions used in the seven methods to promote the dissolution-precipitation equilibrium. Detailed procedures are described in each method section.
The general observation and findings by all 7 methods are summarized in the table 50, according to the detailed observation and discussion pertaining to each method.

[6] = DVS isotherm (hygroscopicity) of Form A
Description: The crystal size of Form A is in the range of ˜few μm to about 50 μm.

[7] = Solubility estimation of freebase Form A in 20 solvents at RT
Description: The solubility of N-(5-(6-chloro-2,2-difluorobenzo[d][1,3]dioxol-5-yl)pyrazin-2-yl)-2-fluoro-6-methylbenzamide freebase Form A was determined in 20 solvents at RT. These experiments were conducted by adding approximately 2 mg of sample into a 3-mL glass vial. Solvents in Table 14 were then added in 50 μL increments into the vials until the solids were dissolved or a total volume of 2 mL was reached. The solubility estimation was used to guide the solvent selection in polymorph screening. N-(5-(6-chloro-2,2-difluorobenzo[d][1,3]dioxol-5-yl)pyrazin-2-yl)-2-fluoro-6-methylbenzamide freebase Form A is soluble in MeOH, Acetic acid, Acetonitrile, Acetone, MIBK, EtOAc, IPAc, MTBE, THF, 2-MeTHF, 1,4-Dioxane, NMP, DMSO, DCM, Toluene and DMAc (>18.0 mg/mL), while it is insoluble in Heptane and H2O (<1.3 mg/mL).

[8] = Solubility of Compound A in F57, Method 4: top-down method; settings: for concentration in F57 vehicle: Method 4 top-down, 2-8° C.; for strength dissolved into F57 vehicle: top-down approach; for concentration on storage: top-down, after 4 weeks' storage at 2-8° C.
Description: as §2
The top-down method used high-energy homogenization to dissolve a set amount of Compound A (Form A) in the F57 vehicle to achieve supersaturation, allowing precipitation to take place over time to reach a dissolution-precipitation equilibrium in F57. The solubility of Compound A in the F57 vehicle was then determined.
(§3) The bottom-up method used a gentle mixing to slowly dissolve Compound A (Form A) in the F57 vehicle to reach the dissolution-precipitation equilibrium in F57. The solubility of Compound A in the F57 vehicle was then determined. • Top-down method: Add form A and B API, each into a separate tube containing the F57 vehicle, then apply extensive energy to each tube by homogenizer (BB, 600 sec) to obtain a clear solution, and store each tube at 2-8° C. • Bottom-up method: Add form A and B API, each into a separate tube containing the F57 vehicle, then gently shake each tube on a platform shaker at 2-8° C. • Pull sample aliquots at 1 day, 2 days, 1 week and 4 weeks to test for appearance and concentration.

[9] = Solubility of Compound A in F57, Method 4: bottom-up method; settings: 2-8° C.; for concentration in F57 vehicle: Method 4 bottom-up
Description: as §2, §3

[10] = as above; settings: for concentration in F57 vehicle: Method 4 bottom-up

## Cc1cccc(F)c1C(=O)Nc1cnc(-c2cc3c(cc2Cl)OC(F)(F)O3)cn1 [Compound A, N-(5-(6-chloro-2,2-difluorobenzo[d][1,3]dioxol-5-yl)pyrazin-2-yl)-2-fluoro-6-methylbenzamide]
[1]
  solubility: ≥ 2400 µg/mL
[2]
  appearance and HPLC assay on stability: remained unchanged
[3]
  % purity on stability: 99.9%
[4]
  solubility: 1800 to 1900 µg/mL (≈ 4.27 to 4.5 mM)
[5]; F57, thermodynamic from solid, in F57, Method 2, Equilibrium reached, read-out: Measured Solubility
  solubility: 1800 to 1900 µg/mL (≈ 4.27 to 4.5 mM)
[5]; F57, thermodynamic from solid, in F57, Method 4, Equilibrium reached, read-out: Measured Solubility
  solubility: 1800 µg/mL (≈ 4.27 mM)
[5]; F57, thermodynamic from solid, in F57, Method 5, Equilibrium reached, read-out: Measured Solubility
  solubility: 1800 to 1900 µg/mL (≈ 4.27 to 4.5 mM)
[5]; F57, thermodynamic from solid, in F57, Method 6, Equilibrium reached, read-out: Measured Solubility
  solubility: 1800 to 1900 µg/mL (≈ 4.27 to 4.5 mM)
[5]; F57, thermodynamic from solid, in F57, Method 7, Equilibrium reached, read-out: Measured Solubility
  solubility: 1800 to 1900 µg/mL (≈ 4.27 to 4.5 mM)

## Cc1cccc(F)c1C(=O)Nc1cnc(-c2cc3c(cc2Cl)OC(F)(F)O3)cn1 [Form A, N-(5-(6-chloro-2,2-difluorobenzo[d][1,3]dioxol-5-yl)pyrazin-2-yl)-2-fluoro-6-methylbenzamide]
[6]; DVS isotherm plot
  hygroscopicity: not hygroscopic
[6]; DVS isotherm, at 80% RH
  water uptake level: < 0.03%
[7]; organic solvent or mixture, thermodynamic from solid, 1,4-Dioxane, read-out: Solubility
  solubility: > 24000 µg/mL
[7]; organic solvent or mixture, thermodynamic from solid, 2-MeTHF, read-out: Solubility
  solubility: > 26000 µg/mL
[7]; organic solvent or mixture, thermodynamic from solid, Acetic acid, read-out: Solubility
  solubility: > 22000 µg/mL
[7]; organic solvent or mixture, thermodynamic from solid, Acetone, read-out: Solubility
  solubility: > 22000 µg/mL
[7]; organic solvent or mixture, thermodynamic from solid, Acetonitrile, read-out: Solubility
  solubility: > 22000 µg/mL
[7]; organic solvent or mixture, thermodynamic from solid, DCM, read-out: Solubility
  solubility: > 22000 µg/mL
[7]; organic solvent or mixture, thermodynamic from solid, DMAc, read-out: Solubility
  solubility: > 22000 µg/mL
[7]; organic solvent or mixture, thermodynamic from solid, DMSO, read-out: Solubility
  solubility: > 20000 µg/mL
[7]; organic solvent or mixture, thermodynamic from solid, EtOAc, read-out: Solubility
  solubility: > 22000 µg/mL
[7]; organic solvent or mixture, thermodynamic from solid, Heptane, read-out: Solubility
  solubility: < 1300 µg/mL
[7]; organic solvent or mixture, thermodynamic from solid, IPAc, read-out: Solubility
  solubility: > 24000 µg/mL
[7]; organic solvent or mixture, thermodynamic from solid, MIBK, read-out: Solubility
  solubility: > 22000 µg/mL
[7]; organic solvent or mixture, thermodynamic from solid, MTBE, read-out: Solubility
  solubility: > 18000 µg/mL
[7]; organic solvent or mixture, thermodynamic from solid, MeOH, read-out: Solubility
  solubility: > 18000 µg/mL
[7]; organic solvent or mixture, thermodynamic from solid, NMP, read-out: Solubility
  solubility: > 26000 µg/mL
[7]; organic solvent or mixture, thermodynamic from solid, THF, read-out: Solubility
  solubility: > 20000 µg/mL
[7]; organic solvent or mixture, thermodynamic from solid, Toluene, read-out: Solubility
  solubility: > 22000 µg/mL
[7]; organic solvent or mixture, thermodynamic from solid, in Heptane and H2O, read-out: solubility (insoluble)
  solubility: < 1300 µg/mL
[7]; organic solvent or mixture, thermodynamic from solid, in MeOH, Acetic acid, Acetonitrile, Acetone, MIBK, EtOAc, IPAc, MTBE, THF, 2-MeTHF, 1,4-Dioxane, NMP, DMSO, DCM, Toluene and DMAc, read-out: solubility (soluble)
  solubility: > 18000 µg/mL
[7]; water, thermodynamic from solid, H2O, read-out: Solubility
  solubility: < 1000 µg/mL
[8]; 1 wk
  concentration in F57 vehicle: 2680 µg/mL
[8]; 4 wk
  concentration in F57 vehicle: 2640 µg/mL
[8]; 1 day
  concentration in F57 vehicle: 2690 µg/mL
[8]; 2 day
  concentration in F57 vehicle: 2650 µg/mL
[8]
  strength dissolved into F57 vehicle: 2.69 mg/mL
  concentration on storage: remained the same
[9]; 1 wk
  concentration in F57 vehicle: 1700 µg/mL
[9]; 4 wk
  concentration in F57 vehicle: 1710 µg/mL
[9]; 1 day
  concentration in F57 vehicle: 1200 µg/mL
[9]; 2 day
  concentration in F57 vehicle: 1530 µg/mL
[9]; bottom-up, emulsion vehicle
  dissolution rate: faster dissolution rate
[5]; F57 emulsion, 2 °C, thermodynamic from solid, 2-8° C., all methods, read-out: solubility in F57
  solubility: 1800 to 1900 µg/mL (≈ 4.27 to 4.5 mM)
[10]; F57 emulsion vehicle, thermodynamic from solid, bottom-up, F57 vehicle, 2-8° C., in 7 weeks
  solubility at 7 weeks: 1800 µg/mL (≈ 4.27 mM)
[10]; 2-8° C., 7 wk
  concentration in F57 vehicle: 1850 µg/mL
[10]; 25° C., 1 wk
  concentration in F57 vehicle: 2190 µg/mL
[10]; 25° C., 4 wk
  concentration in F57 vehicle: 2170 µg/mL
[10]; 25° C., 1 day
  concentration in F57 vehicle: 2180 µg/mL
[10]; 25° C., 2 day
  concentration in F57 vehicle: 2240 µg/mL

## Cc1cccc(F)c1C(=O)Nc1cnc(-c2cc3c(cc2Cl)OC(F)(F)O3)cn1 [Form B, N-(5-(6-chloro-2,2-difluorobenzo[d][1,3]dioxol-5-yl)pyrazin-2-yl)-2-fluoro-6-methylbenzamide]
[8]; 1 wk
  concentration in F57 vehicle: 2970 µg/mL
[8]; 4 wk
  concentration in F57 vehicle: 2970 µg/mL
[8]; 1 day
  concentration in F57 vehicle: 3000 µg/mL
[8]; 2 day
  concentration in F57 vehicle: 2940 µg/mL
[8]
  strength dissolved into F57 vehicle: 3.00 mg/mL
  concentration on storage: remained the same
[9]; 1 wk
  concentration in F57 vehicle: 1630 µg/mL
[9]; 4 wk
  concentration in F57 vehicle: 1660 µg/mL
[9]; 1 day
  concentration in F57 vehicle: 750 µg/mL
[9]; 2 day
  concentration in F57 vehicle: 1140 µg/mL
[10]; 2-8° C., 7 wk
  concentration in F57 vehicle: 1800 µg/mL
[10]; 25° C., 1 wk
  concentration in F57 vehicle: 2150 µg/mL
[10]; 25° C., 4 wk
  concentration in F57 vehicle: 2040 µg/mL
[10]; 25° C., 1 day
  concentration in F57 vehicle: 1300 µg/mL
[10]; 25° C., 2 day
  concentration in F57 vehicle: 1730 µg/mL
[10]; bottom-up, F57 vehicle, 2-8° C., in 7 weeks
  solubility: 1800 µg/mL (≈ 4.27 mM)
